Results: PubChem BioAssay (NCI)
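The compound was tested at five concentrations on cells cultured in 96-well plates, with a 48-hour exposure period. GI50: concentration for 50% inhibition of growth. TGI: concentration producing complete growth inhibition.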

Legend:
Test in all cases: NCI-60 cell line screen, 48 h
[1] = test system: U251 CNS
[2] = test system: HCT-116 colon
[3] = test system: SF-539 CNS
[4] = test system: IGROV1 ovarian
[5] = test system: UACC-62 melanoma
[6] = test system: A549 NSCLC
[7] = test system: HT29 colon
[8] = test system: M14 melanoma
[9] = test system: SK-MEL-28 melanoma
[10] = test system: HOP-92 NSCLC
[11] = test system: RPMI-8226 leukemia
[12] = test system: SF-295 CNS
[13] = test system: EKVX NSCLC
[14] = test system: A498 renal
[15] = test system: DU-145 prostate
[16] = test system: SNB-19 CNS
[17] = test system: MDA-MB-468 breast
[18] = test system: BT-549 breast
[19] = test system: MALME-3M melanoma
[20] = test system: SNB-75 CNS
[21] = test system: HL-60(TB) leukemia
[22] = test system: SW-620 colon
[23] = test system: LOX IMVI melanoma
[24] = test system: SK-MEL-2 melanoma
[25] = test system: RXF 393 renal
[26] = test system: NCI-H460 lung
[27] = test system: HCC-2998 colon
[28] = test system: MDA-MB-231 breast
[29] = test system: NCI-H23 lung
[30] = test system: KM12 colon

**Q.** Which GI50 [1] does the source give for CCOc1ccc(/C=N/NC(=O)Cn2nc(Cc3ccc(OC)cc3)c3onc(C)c3c2=O)cc1 here?
**A.** Its GI50 is 3.96 µM.

**Q.** And the TGI [1]?
**A.** The TGI was 17.1 µM.

**Q.** And the GI50 [2]?
**A.** Its GI50 is 3.39 µM.

**Q.** And the TGI [2]?
**A.** Its TGI is 11.6 µM.

**Q.** And the GI50 [3]?
**A.** The GI50 was 7.35 µM.

**Q.** And the TGI [3]?
**A.** Its TGI is 20 µM.

**Q.** What about the GI50 [4] of the same molecule?
**A.** Its GI50 is 15.3 µM.

**Q.** What about the TGI [4] of the same molecule?
**A.** Its TGI is 43 µM.

**Q.** What about the GI50 [5] of the same molecule?
**A.** Its GI50 is 13.2 µM.

**Q.** What about the TGI [5] of the same molecule?
**A.** Its TGI is 32.7 µM.

**Q.** What about the GI50 [6] of the same molecule?
**A.** Its GI50 is 3.43 µM.

**Q.** What about the TGI [6] of the same molecule?
**A.** The TGI was 13.1 µM.

**Q.** What about the GI50 [7] of the same molecule?
**A.** Its GI50 is 12.3 µM.

**Q.** What about the TGI [7] of the same molecule?
**A.** The TGI was 32.9 µM.

**Q.** And the GI50 [8]?
**A.** The GI50 was 13.7 µM.

**Q.** And the TGI [8]?
**A.** The TGI was 75.1 µM.

**Q.** And the GI50 [9]?
**A.** The GI50 was 10.4 µM.

**Q.** What about the TGI [9] of the same molecule?
**A.** Its TGI is 24.8 µM.

**Q.** And the GI50 [10]?
**A.** The GI50 was 3.61 µM.

**Q.** What about the TGI [10] of the same molecule?
**A.** Its TGI is 16.5 µM.

**Q.** What about the GI50 [11] of the same molecule?
**A.** The GI50 was 78.2 µM.

**Q.** What about the TGI [11] of the same molecule?
**A.** The TGI was > 100 µM.

**Q.** And the GI50 [12]?
**A.** Its GI50 is 6.77 µM.

**Q.** What about the TGI [12] of the same molecule?
**A.** The TGI was 21.8 µM.

**Q.** What about the GI50 [13] of the same molecule?
**A.** The GI50 was 10.8 µM.

**Q.** And the TGI [13]?
**A.** The TGI was 30.3 µM.

**Q.** What about the GI50 [14] of the same molecule?
**A.** The GI50 was 3.83 µM.

**Q.** And the TGI [14]?
**A.** The TGI was 13.7 µM.

**Q.** What about the GI50 [15] of the same molecule?
**A.** Its GI50 is 9.35 µM.

**Q.** What about the TGI [15] of the same molecule?
**A.** Its TGI is 26.9 µM.

**Q.** And the GI50 [16]?
**A.** The GI50 was 12.2 µM.

**Q.** And the TGI [16]?
**A.** Its TGI is 32.4 µM.

**Q.** And the GI50 [17]?
**A.** Its GI50 is 9.93 µM.

**Q.** And the TGI [17]?
**A.** Its TGI is 29.3 µM.

**Q.** What about the GI50 [18] of the same molecule?
**A.** The GI50 was 10.3 µM.

**Q.** What about the TGI [18] of the same molecule?
**A.** Its TGI is 27.1 µM.

**Q.** What about the GI50 [19] of the same molecule?
**A.** The GI50 was 4.86 µM.

**Q.** What about the TGI [19] of the same molecule?
**A.** The TGI was 19.5 µM.

**Q.** What about the GI50 [20] of the same molecule?
**A.** The GI50 was 1.64 µM.

**Q.** And the TGI [20]?
**A.** The TGI was 3.42 µM.

**Q.** What about the GI50 [21] of the same molecule?
**A.** Its GI50 is 51.1 µM.

**Q.** What about the TGI [21] of the same molecule?
**A.** Its TGI is > 100 µM.

**Q.** And the GI50 [22]?
**A.** Its GI50 is 7.37 µM.

**Q.** What about the TGI [22] of the same molecule?
**A.** Its TGI is 36.5 µM.

**Q.** And the GI50 [23]?
**A.** Its GI50 is 10.9 µM.

**Q.** What about the TGI [23] of the same molecule?
**A.** Its TGI is 27.9 µM.

**Q.** What about the GI50 [24] of the same molecule?
**A.** The GI50 was 18.4 µM.

**Q.** And the TGI [24]?
**A.** The TGI was 41 µM.

**Q.** What about the GI50 [25] of the same molecule?
**A.** Its GI50 is 2.71 µM.

**Q.** And the TGI [25]?
**A.** Its TGI is 6.38 µM.

**Q.** What about the GI50 [26] of the same molecule?
**A.** The GI50 was 5.32 µM.

**Q.** And the TGI [26]?
**A.** The TGI was 19.2 µM.

**Q.** And the GI50 [27]?
**A.** Its GI50 is 11 µM.

**Q.** What about the TGI [27] of the same molecule?
**A.** The TGI was 27.4 µM.

**Q.** What about the GI50 [28] of the same molecule?
**A.** Its GI50 is 9.23 µM.

**Q.** What about the TGI [28] of the same molecule?
**A.** The TGI was 27.9 µM.

**Q.** What about the GI50 [29] of the same molecule?
**A.** Its GI50 is 10.7 µM.

**Q.** What about the TGI [29] of the same molecule?
**A.** The TGI was 33.1 µM.

**Q.** What about the GI50 [30] of the same molecule?
**A.** The GI50 was 41.8 µM.
